Our source for the IC50 values is ChEMBL document CHEMBL3639015, “Bicyclic compound or salt thereof” (2014).

This test concerns the target Heat shock protein HSP 90-alpha (Homo sapiens, UniProt P07900). Briefly: AlphaScreen Competitive Assay: HSP90-binding activity was determined by an AlphaScreen competitive assay system. The purified HSP90 solution was diluted with a binding buffer (50 mM Tris-HCl (pH 7.5), 150 mM NaCl, 0.1% Triton-X 100, 1 mM DTT, 0.1% BSA) and added to a 384-well plate (#3673, Corning Inc.) containing test substances. After reaction at room temperature for 2 hours, biotinylated geldanamycin was added thereto at a concentration of 40 nM/well and further reacted for 1 hour. Detection mix (20 mM HEPES-KOH (pH 7.5), 0.5% BSA, 0.04 mg/mL Nickel Chelate Acceptor beads, 0.04 mg/mL Streptavidin-coated Donor beads) (#6760619C, PerkinElmer, Inc.) was added to each well in an amount equal to the amount of the reaction solution and reacted at room temperature for 1 hour in the dark. Then, fluorescence intensity was measured using Multilabel Plate Reader EnVision (PerkinElmer, Inc.).
`CC(C)Cn1cc(-c2cn(-c3cccc4c(-c5ccc(C(N)=O)c(NC6CCC(O)CC6)c5)nccc34)cn2)cn1` (stereo not drawn): the IC50 is 280 nM.

With `Cn1cc(-c2cn(-c3cccc4c(-c5ccc(C(N)=O)c(NCC6CC6)c5)cc(C(F)(F)F)nc34)cn2)cn1`, the IC50 turned out to be 220 nM.

Consider `NCC(=O)OC1CCC(Nc2cc(-c3nccc4c(-c5cnc6ccccc6c5)cccc34)ccc2C(N)=O)CC1` (stereo not drawn), for which the IC50 stood at 450 nM.

In the case of `CC(C)(C)Nc1cc(-c2cc(C(F)(F)F)nc3c(-n4cnc(-c5ccccc5)c4)cccc23)ccc1C(N)=O`, the IC50 was found to be 3390 nM.

As to `Cn1cc(-c2cn(-c3cccc4c(-c5ccc(C(N)=O)c(NC6CCCCCC6)c5)nccc34)cn2)cn1`, the half-maximal inhibitory concentration (IC50) is 270 nM.

For the molecule `CCNc1cc(-c2cc(C(F)(F)F)nc3c(-n4cnc(-c5cnn(C(F)F)c5)c4)cccc23)ccc1C(N)=O`, the IC50 was 230 nM.

For the molecule `NC(=O)c1ccc(-c2nccc3c(-c4cncc(N)c4)cccc23)cc1NC1CCC(O)CC1` (stereo not drawn), the IC50 came to 60 nM.

On to `CCNc1cc(-c2nccc3c(-n4cnc(-c5cnn(C)c5)c4)cccc23)ccc1C(N)=O`, for which the IC50 amounted to 190 nM.

The term IC50 denotes the concentration that gives 50% inhibition.
